ChEMBL document CHEMBL4651402, “Screening of ~5500 FDA-approved drugs and clinical candidates for anti-SARS-CoV-2 activity” (2021)

Tested on: SARS-CoV-2
Experiment: microbe, parasite or virus in culture
Details: Severe acute respiratory syndrome coronavirus 2, Vero C1008, 48 h

Structure (SMILES)	IC50 [µM]	IC50 (read-out: pIC50 (converted)) [µM]
COc1cccc(C(=O)CCNC(C)C(O)c2ccccc2)c1 (stereo unspecified)	> 20	> 20
C[N+]1(C)CCC(=C(c2ccccc2)c2ccccc2)CC1	> 20	> 20
COc1ccc(CCN(C)CCCC2(c3ccc(OC)c(OC)c3)S(=O)(=O)CCCS2(=O)=O)cc1OC	> 20	> 20
CN1CC(O)C2=CC(=O)C(=O)C=C21 (stereo unspecified)	> 20	> 20
Cc1cc2c(cc1S(N)(=O)=O)S(=O)(=O)CCC2	> 20	> 20
CC12CCC3C4CCC(=O)C=C4CCC3C1CCC2OC(=O)CCc1ccccc1 (stereo unspecified)	> 20	> 20
CN(C)N=Nc1[nH]cnc1C(N)=O	> 20	> 20
NC(COP(=O)(O)O)C(=O)O (stereo unspecified)	> 20	> 20
CC(C)C1C(=O)N2CCCC2C2(O)OC(NC(=O)C3C=C4c5cccc6[nH]cc(c56)CC4N(C)C3)(C(C)C)C(=O)N12 (stereo unspecified)	> 20	> 20
Cc1c(C)c2ccc(OCCCN3CCN(Cc4ccc(Cl)cc4)CC3)cc2oc1=O	> 20	> 20
CC(=O)OC1(c2ccccc2)CCN(CCc2ccccc2)CC1	> 20	> 20
CC(=O)N1C[C@H](O)C[C@H]1C(=O)N[C@@H](CCCN=C(N)N)C(=O)c1nc2ccccc2s1	> 20	> 20
NC(=O)CN1CC(c2ccccc2)CC1=O (stereo unspecified)	> 20	> 20
CN1C(=O)C(NC(=O)c2cc3ccccc3[nH]2)N=C(c2ccccc2)c2ccccc21 (stereo unspecified)	> 20	> 20
CCOC(N)=O	> 20	> 20
NC1=NCC(CN2CCN(c3ccccc3)CC2)O1 (stereo unspecified)	> 20	> 20
COc1ccc2c3c1OC1C(OC(C)=O)=CCC4C(C2)N(C)CCC314 (stereo unspecified)	> 20	> 20

Structure (SMILES)	IC50 [µM]	IC50 (read-out: pIC50 (converted)) [µM]
CC1CC2C3CCC4=CC(=O)C=CC4(C)[C@@]3(F)C(O)CC2(C)C1(O)C(=O)COP(=O)(O)O (stereo partly specified)	> 20	> 20
CNC(=O)CCN1CCN(CCC=C2c3ccccc3Sc3ccc(Cl)cc32)CC1	> 20	> 20
C=CCNS(=O)(=O)c1cc(S(N)(=O)=O)c(Cl)cc1/N=C/C=C(\C)O	> 20	> 20
CCOC(=O)C1OC1C(=O)NC(CC(C)C)C(=O)N1CCN(Cc2ccc(OC)c(OC)c2OC)CC1 (stereo unspecified)	> 20	> 20
CC1CC2C3CC(F)C4=CC(=O)C=CC4(C)C3C(O)CC2(C)C1C(=O)CO (stereo unspecified)	> 20	> 20
CCC[C@@H]1C[C@@H](C(=O)N[C@@H](C(C)O)[C@H]2O[C@H](SC)[C@H](O)[C@@H](O)[C@H]2O)N(C)C1 (stereo partly specified)	> 20	> 20
Cc1nnc(SCC2=C(C(=O)O)N3C(=O)C(NC(=O)C(N)c4ccc(O)cc4)C3SC2)s1 (stereo unspecified)	> 20	> 20
C[C@H]1O[C@H](OC[C@@H]2O[C@H](Oc3c(-c4ccc(O)c(O)c4)oc4cc(O)cc(O)c4c3=O)[C@@H](O)[C@H](O)[C@H]2O)[C@@H](O)[C@@H](O)[C@@H]1O	> 20	> 20
CN(C)Cc1ccc(CSCCNC2=NS(=O)(=O)c3cscc32)o1	> 20	> 20
COc1ccc2c(c1)c(CC(=O)NC(CO)C(=O)O)c(C)n2C(=O)c1ccc(Cl)cc1 (stereo unspecified)	> 20	> 20
CC12CCC(=O)C[C@@H]1CCC1C2CCC2(C)C1CCC2(C)O (stereo partly specified)	> 20	> 20
CC1CC[C@@]2(OC1)OC1CC3C4CC[C@H]5CC(O)CCC5(C)C4CC(=O)C3(C)C1C2C (stereo partly specified)	> 20	> 20
CC(C)CCCC(C)C1CCC2C3C=CC4=CC(=O)CCC4(C)C3CCC12C (stereo unspecified)	> 20	> 20
O=C(O)CCCCCc1cccc2cncn12	> 20	> 20
CC(/C=C1\SC(=S)N(CC(=O)O)C1=O)=C\c1ccccc1	> 20	> 20
CCN(CC)CCOC(=O)C1(c2ccccc2)CCCC1	> 20	> 20
